Source: patent EP1531159B1, “Peptide useful for diagnosis and therapy of tumors” (Deutsches Krebsforschungszentrum Stiftung des öffentlichen …, priority 2003, dated 2005)

Experiments:
[1] = test system: PC-3 cells (prostate tumor cell line); test: Binding kinetics of 125I-DU-Sigi1 on PC-3 cells; parameters: species or system human; details: data not shown
[2] = test system: DU-145 prostate tumor cells; test: Competition assay of 125I-DU-Sigi1 with unlabeled competitor on DU-145 cells; assay type: binding, human; details: for inhibition of binding of ^125I-DU-Sigi1: 10 min at 37°C
Protocol: The peptide DU-Sigi1 (FRPNRAQDYNTN) was prepared by chemical synthesis and labeled with ^125I. 200,000 DU-145 cells (human prostate tumor cell line) were seeded into 6-well plates and cultivated for 24 hours. Then, the medium was replaced by fresh medium (without FCS). Different competitor concentrations (unlabeled DU-Sigi1) were added to the medium 30 min before the ^125I-labeled peptide was added to the wells (1-2 mio cpm/well) and incubated for 10 min at 37°C.[…], After the incubation time the cells were collected and washed for three times with 1 ml PBS per washing. Then, the cells were lysed with 0.3 M NaOH. Radioactivity of the lysed cells was determined with a gamma counter and radioactivity as percent applied dose per 1 million cells was calculated. […] The ID50 is approx. 50 µM.

[3] = test system: PC-3 cells (prostate tumor cell line); test: Competition assay of 125I-DU-Sigi1 with unlabeled DU-Sigi1 on PC-3 cells; assay type: binding, human; details: data not shown
[4] = test system: human tumor cell lines (DU-145, PC-3, IMR5-75, MDA-MB-435, SW-1736, NPA-87); test: Binding of 125I-DU-Sigi1 to human tumor cell lines
Protocol: (§1) The peptide DU-Sigi1 (FRPNRAQDYNTN) was prepared by chemical synthesis and labelled with ^125I. For in vitro studies, 200,000 cells (DU-145, human prostate tumor cell line; PC-3, human prostate cell line; HUVEC, human primary endothelial cells, IMR5-75, human neuroblastoma cell line, MDA-MB-435, human breast cancer cell line, SW-1736, human thyroid cancer cell line, NPA-87, human thyroid cancer cell line) were seeded into 6-well plates and cultivated for 24 hours. Then, the medium was replaced by fresh medium (without FCS) and for the plates with competitor, unlabelled peptide was added (10^-4 M) and preincubated for 30 min. Then, ^125I-labelled peptide was added to the cell culture (1-2 mio cpm/well) and incubated for 10 min. The cells were collected and washed for three times with 1 ml PBS per washing. Then, the cells were lysed with 0.3 M NaOH. Radioactivity of the lysed cells was determined with a gamma counter and radioactivity as percent applied dose per 1 million cells was calculated.

[5] = test system: HUVEC, human primary endothelial cells; test: Binding of 125I-DU-Sigi1 to primary endothelial cells; details: ^125I-labelled peptide, 1-2 mio cpm/well, 10 min incubation
Protocol: as §1

[6] = test system: human prostate tumor (DU-145); test: Organ distribution of intravenously injected 131I-labeled DU-Sigi1 in tumor-bearing mice; assay type: in vivo, male nu/nu mice; details: i.v., 28 mio cpm/mouse, 15 min and 45 min postinjection
Protocol: The peptide DU-Sigi1 (FRPNRAQDYNTN) was prepared by chemical synthesis and labeled with ^131I. ^131I labeled peptide DU-Sigi1 (FRPNRAQDYNTN) (28 mio cpm/mouse) was intravenously injected into male nu/nu mice, which subcutaneously carried a human prostate tumor (DU-145). 15 min. and 45 min, respectively, postinjection the mice were sacrificed. The organs were removed, weighed and the radioactivity was determined with a gamma counter. […] The high blood volumn might be due to the degradation of the peptide by serum peptidases and proteases.

[7] = test system: DU-145 prostate tumor cells; test: Binding kinetics of 125I-DU-Sigi1 on DU-145 cells; parameters: species or system human
Protocol: The peptide DU-Sigi1 (FRPNRAQDYNTN) was prepared by chemical synthesis and labelled with ^125I. 200,000 DU-145 cells (human prostate tumor cell line) were seeded into 6-well plates and cultivated for 24 hours. Then, the medium was replaced by fresh medium (without FCS). ^125I-labelled peptide was added to the cell culture (1-2 mio cpm/well) and incubated for times from 1 min to 4 h. After the incubation time the cells were collected and washed for three times with 1 ml PBS per washing. Then, the cells were lysed with 0.3 M NaOH. Radioactivity of the lysed cells was determined with a gamma counter and radioactivity as percent applied dose per 1 million cells was calculated. It could be shown that the binding of DU-Sigi1 is rapid and the highest binding rate occurs after 5 min. Then the amount of bound peptide decreases and reaches a basal level of about 1.5 % applied dose/1 mio cells.

Substance	binding kinetics compared with DU-145 cells [1]	ID50 ([2]; unlabeled DU-Sigi1 as competitor of ^125I-DU-Sigi1)	inhibition of binding of ^125I-DU-Sigi1 ([2]; unlabeled DU-Sigi1 concentration 10^-4, added 30 min before)	inhibition of binding of ^125I-DU-Sigi1 ([2]; unlabeled DU-Sigi1 concentration 10^-5, added 30 min before)	competition compared with DU-145 cells [3]	binding of labelled peptide to tumor cells ([4]; ^125I-labelled peptide, 1-2 mio cpm/well, 10 min incubation)	competitive inhibition of binding ([4]; unlabelled peptide 10^-4 M, preincubated for 30 min)	binding of labelled peptide to primary endothelial cells [5]	accumulation in tumor versus other organs [6]	basal level of bound peptide ([7]; after the binding maximum, incubation up to 4 h)	time of highest binding rate ([7]; incubation times from 1 min to 4 h) [min]	competition with ^125I-DU-Sigi1 binding ([2]; unlabeled competitor, same concentration, data not shown)
FRPNRAQDYNTN [DU-Sigi1]	The same results were obtained	approx. 50 µM	more than 95%	more than 95%	The same results were obtained	specifically binds to the various tumor cells	up to 95%	not the primary endothelial cells	accumulates in the tumor to a higher extent than in the other organs, with the exeption of the kidney	about 1.5 % applied dose/1 mio cells	5	
octreotide [reference compound]												No competition
